# According to patent publication US8748415B2 (priority 2011, dated 2014):
# System: recombinant NL4-3 virus (Renilla luciferase in nef, Gag P373S)
# Experiment: HIV cell culture assay (luciferase activity in MT-2 cells infected with NLRluc recombinant virus)
# Type: cell-based
# Conditions: NL43, MT-2 cells infected 4-5 days with NLRluc recombinant virus
# Outline: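 Activity was read as luciferase output (Dual Luciferase reagents premixed with lysis solution) after 4–5 days of infection in serially diluted inhibitor. Host cells were MT-2 in 10% FBS RPMI. The reporter virus came from transfected 293T cells and was titered on MT-2.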
SMILES,EC50 (class symbol) [nM],EC50 (numeric value) [nM]
"C=C(C)[C@@H]1CC[C@]2(CNCC(=O)N3CCC(C(=O)OCC)CC3)CC[C@]3(C)[C@H](CC[C@@H]4[C@@]5(C)CC=C(c6ccc(C(=O)O)cc6)C(C)(C)[C@@H]5CC[C@]43C)[C@@H]12 [Example 111, 4-((1R,3aS,5aR,5bR,7aR,11aS,11bR,13aR,13bR)-3a-((2-(4-(ethoxycarbonyl)piperidin-1-yl)-2-oxoethylamino)methyl)-5a,5b,8,8,11a-pentamethyl-1-(prop-1-en-2-yl)-2,3,3a,4,5,5a,5b,6,7,7a,8,11,11a,11b,12,13,13a,13b-octadecahydro-1H-cyclopenta[a]chrysen-9-yl)benzoic acid]",< 100,–
"C=C(C)[C@@H]1CC[C@]2(CNCC(=O)N3CCC(C(=O)O)CC3)CC[C@]3(C)[C@H](CC[C@@H]4[C@@]5(C)CC=C(c6ccc(C(=O)O)cc6)C(C)(C)[C@@H]5CC[C@]43C)[C@@H]12 [Example 112, 1-(2-(((1R,3aS,5aR,5bR,7aR,11aS,11bR,13aR,13bR)-9-(4-carboxyphenyl)-5a,5b,8,8,11a-pentamethyl-1-(prop-1-en-2-yl)-2,3,3a,4,5,5a,5b,6,7,7a,8,11,11a,11b,12,13,13a,13b-octadecahydro-1H-cyclopenta[a]chrysen-3a-yl)methylamino)acetyl)piperidine-4-carboxylic acid]",< 100,–
"C=C(C)[C@@H]1CC[C@]2(CNCCCNCCO)CC[C@]3(C)[C@H](CC[C@@H]4[C@@]5(C)CC=C(c6ccc(C(=O)O)cc6)C(C)(C)[C@@H]5CC[C@]43C)[C@@H]12 [Example 61, 4-((1R,3aS,5aR,5bR,7aR,11aS,11bR,13aR,13bR)-3a-((3-(2-hydroxyethylamino)propylamino)methyl)-5a,5b,8,8,11a-pentamethyl-1-(prop-1-en-2-yl)-2,3,3a,4,5,5a,5b,6,7,7a,8,11,11a,11b,12,13,13a,13b-octadecahydro-1H-cyclopenta[a]chrysen-9-yl)benzoic acid]",< 100,–
"C=C(C)[C@@H]1CC[C@]2(CNCCNC(C)=O)CC[C@]3(C)[C@H](CC[C@@H]4[C@@]5(C)CC=C(c6ccc(C(=O)O)cc6)C(C)(C)[C@@H]5CC[C@]43C)[C@@H]12 [Example 7, 4-((1R,3aS,5aR,5bR,7aR,11aS,11bR,13aR,13bR)-3a-((2-acetamidoethylamino)methyl)-5a,5b,8,8,11a-pentamethyl-1-(prop-1-en-2-yl)-2,3,3a,4,5,5a,5b,6,7,7a,8,11,11a,11b,12,13,13a,13b-octadecahydro-1H-cyclopenta[a]chrysen-9-yl)benzoic acid]",< 100,–
"C=C(C)[C@@H]1CC[C@]2(CNC(=O)c3ccc(S(N)(=O)=O)cc3)CC[C@]3(C)[C@H](CC[C@@H]4[C@@]5(C)CC=C(c6ccc(C(=O)O)cc6)C(C)(C)[C@@H]5CC[C@]43C)[C@@H]12 [Example 144, 4-((1R,3aS,5aR,5bR,7aR,11aS,11bR,13aR,13bR)-5a,5b,8,8,11a-pentamethyl-1-(prop-1-en-2-yl)-3a((4-sulfamoylbenzamido)methyl)-2,3,3a,4,5,5a,5b,6,7,7a,8,11,11a,11b,12,13,13a,13b-octadecahydro-1H-cyclopenta[a]chrysen-9-yl)benzoic acid]",< 100,–
"C=C(C)[C@@H]1CC[C@]2(CN(CCN(C)C)C(=O)CCC(=O)O)CC[C@]3(C)[C@H](CC[C@@H]4[C@@]5(C)CC=C(c6ccc(C(=O)O)cc6)C(C)(C)[C@@H]5CC[C@]43C)[C@@H]12 [Example 13, 4-((1R,3aS,5aR,5bR,7aR,11aS,11bR,13aR,13bR)-3a-((3-carboxy-N-(2-(dimethylamino)ethyl)propanamido)methyl)-5a,5b,8,8,11a-pentamethyl-1-(prop-1-en-2-yl)-2,3,3a,4,5,5a,5b,6,7,7a,8,11,11a,11b,12,13,13a,13b-octadecahydro-1H-cyclopenta[a]chrysen-9-yl)benzoic acid]",< 100,–
C=C(C)[C@@H]1CC[C@]2(CNCCCn3ccnc3C)CC[C@]3(C)[C@H](CC[C@@H]4[C@@]5(C)CC=C(c6ccc(C(=O)O)cc6)C(C)(C)[C@@H]5CC[C@]43C)[C@@H]12 [Example 22],< 100,–
"C=C(C)[C@@H]1CC[C@]2(CNCCS(C)(=O)=O)CC[C@]3(C)[C@H](CC[C@@H]4[C@@]5(C)CC=C(c6ccc(C(=O)O)cc6)C(C)(C)[C@@H]5CC[C@]43C)[C@@H]12 [Example 41, 4-((1R,3aS,5aR,5bR,7aR,11aS,11bR,13aR,13bR)-5a,5b,8,8,11a-pentamethyl-3a-((2-(methylsulfonyl)ethylamino)methyl)-1-(prop-1-en-2-yl)-2,3,3a,4,5,5a,5b,6,7,7a,8,11,11a,11b,12,13,13a,13b-octadecahydro-1H-cyclopenta[a]chrysen-9-yl)benzoic acid]",< 100,–
"C=C(C)[C@@H]1CC[C@]2(CNCCC(=O)N3CCC(C(=O)O)CC3)CC[C@]3(C)[C@H](CC[C@@H]4[C@@]5(C)CC=C(c6ccc(C(=O)O)cc6)C(C)(C)[C@@H]5CC[C@]43C)[C@@H]12 [Example 104, 1-(3-(((1R,3aS,5aR,5bR,7aR,11aS,11bR,13aR,13bR)-9-(4-carboxyphenyl)-5a,5b,8,8,11a-pentamethyl-1-(prop-1-en-2-yl)-2,3,3a,4,5,5a,5b,6,7,7a,8,11,11a,11b,12,13,13a,13b-octadecahydro-1H-cyclopenta[a]chrysen-3a-yl)methylamino)propanoyl)piperidine-4-carboxylic acid]",< 100,–
"C=C(C)[C@@H]1CC[C@]2(CNCCN3CCC(CO)CC3)CC[C@]3(C)[C@H](CC[C@@H]4[C@@]5(C)CC=C(c6ccc(C(=O)O)cc6)C(C)(C)[C@@H]5CC[C@]43C)[C@@H]12 [Example 181, 4-((1R,3aS,5aR,5bR,7aR,11aS,11bR,13aR,13bR)-3a-((2-(4-(hydroxymethyl)piperidin-1-yl)ethylamino)methyl)-5a,5b,8,8,11a-pentamethyl-1-(prop-1-en-2-yl)-2,3,3a,4,5,5a,5b,6,7,7a,8,11,11a,11b,12,13,13a,13b-octadecahydro-1H-cyclopenta[a]chrysen-9-yl)benzoic acid]",–,1
"C=C(C)[C@@H]1CC[C@]2(CNCC(=O)N3CCCC3)CC[C@]3(C)[C@H](CC[C@@H]4[C@@]5(C)CC=C(c6ccc(C(=O)O)cc6)C(C)(C)[C@@H]5CC[C@]43C)[C@@H]12 [Example 109, 4-((1R,3aS,5aR,5bR,7aR,11aS,11bR,13aR,13bR)-5a,5b,8,8,11a-pentamethyl-3a-((2-oxo-2-(pyrrolidin-1-yl)ethylamino)methyl)-1-(prop-1-en-2-yl)-2,3,3a,4,5,5a,5b,6,7,7a,8,11,11a,11b,12,13,13a,13b-octadecahydro-1H-cyclopenta[a]chrysen-9-yl)benzoic acid]",< 100,–
"C=C(C)[C@@H]1CC[C@]2(CN[C@@H](CC(=O)O)C(=O)N3CCS(=O)(=O)CC3)CC[C@]3(C)[C@H](CC[C@@H]4[C@@]5(C)CC=C(c6ccc(C(=O)O)cc6)C(C)(C)[C@@H]5CC[C@]43C)[C@@H]12 [Example 132, 4-thiomorpholinebutanoic acid, 4-((1R,3aS,5aR,5bR,7aR,11aS,11bR,13aR,13bR)-3a-((((1S)-1-(carboxymethyl)-2-(1,1-dioxido-4-thiomorpholinyl)-2-oxoethyl)amino)methyl)-1-isopropenyl-5a,5b,8,8,11a-pentamethyl-2,3,3a,4,5,5a,5b,6,7,7a,8,11,11a,11b,12,13,13a,13b-octadecahydro-1H-cyclopenta[a]chrysen-9-yl)benzoic acid]",< 100,–
"C=C(C)[C@@H]1CC[C@]2(CNCCN(C)C)CC[C@]3(C)[C@H](CC[C@@H]4[C@@]5(C)CC=C(c6ccc(C(=O)O)cc6)C(C)(C)[C@@H]5CC[C@]43C)[C@@H]12 [Example 1, 4-((1R,3aS,5aR,5bR,7aR,11aS,11bR,13aR,13bR)-3a-((2-(dimethylamino)ethylamino)methyl)-5a,5b,8,8,11a-pentamethyl-1-(prop-1-en-2-yl)-2,3,3a,4,5,5a,5b,6,7,7a,8,11,11a,11b,12,13,13a,13b-octadecahydro-1H-cyclopenta[a]chrysen-9-yl)benzoic acid]",< 100,–
"C=C(C)[C@@H]1CC[C@]2(CNCCC(=O)N(C)CCS(C)(=O)=O)CC[C@]3(C)[C@H](CC[C@@H]4[C@@]5(C)CC=C(c6ccc(C(=O)O)cc6)C(C)(C)[C@@H]5CC[C@]43C)[C@@H]12 [Example 125, 4-((1R,3aS,5aR,5bR,7aR,11aS,11bR,13aR,13bR)-5a,5b,8,8,11a-pentamethyl-3a-((3-(methyl(2-(methylsulfonyl)ethyl)amino)-3-oxopropylamino)methyl)-1-(prop-1-en-2-yl)-2,3,3a,4,5,5a,5b,6,7,7a,8,11,11a,11b,12,13,13a,13b-octadecahydro-1H-cyclopenta[a]chrysen-9-yl)benzoic acid]",< 100,–
"C=C(C)[C@@H]1CC[C@]2(CNCC(OCC)OCC)CC[C@]3(C)[C@H](CC[C@@H]4[C@@]5(C)CC=C(c6ccc(C(=O)O)cc6)C(C)(C)[C@@H]5CC[C@]43C)[C@@H]12 [Example 42, 4-((1R,3aS,5aR,5bR,7aR,11aS,11bR,13aR,13bR)-3a-((2,2-diethoxyethylamino)methyl)-5a,5b,8,8,11a-pentamethyl-1-(prop-1-en-2-yl)-2,3,3a,4,5,5a,5b,6,7,7a,8,11,11a,11b,12,13,13a,13b-octadecahydro-1H-cyclopenta[a]chrysen-9-yl)benzoic acid]",< 100,–
"C=C(C)[C@@H]1CC[C@]2(CNCCCN3CCCS3(=O)=O)CC[C@]3(C)[C@H](CC[C@@H]4[C@@]5(C)CC=C(c6ccc(C(=O)O)cc6)C(C)(C)[C@@H]5CC[C@]43C)[C@@H]12 [Example 40, 4-((1R,3aS,5aR,5bR,7aR,11aS,11bR,13aR,13bR)-3a-(((3-(1,1-dioxido-2-isothiazolidinyl)propyl)amino)methyl)-1-isopropenyl-5a,5b,8,8,11a-pentamethyl-2,3,3a,4,5,5a,5b,6,7,7a,8,11,11a,11b,12,13,13a,13b-octadecahydro-1H-cyclopenta[a]chrysen-9-yl)benzoic acid]",< 100,–
